This is an account of results in US8673957B2, “Fluorescent probe” (Tetsuo Nagano, priority 2003, dated 2014).

Series [1] can be described thus: Reaction with nitrogen monoxide (NOC 13 as nitrogen monoxide generating agent), excitation/fluorescence spectra and HPLC. The following applies: 1 hour, 0.1 M sodium phosphate buffer (pH 7.4). Here is the method: NOC 13, which is a nitrogen monoxide generating agent, was added to Compound (7), and changes of excitation and fluorescence emission spectra were measured. The compound (7) at 5 μM (cosolvent: 0.1% DMSO) and NOC 13 were incubated at 37° C. for 1 hour in 0.1 M sodium phosphate buffer (pH 7.4), and then excitation and fluorescence spectra were measured. The measurement was performed with slit widths of Ex/Em=2.5/2.5 nm, excitation wavelength of 520 nm, and emission wavelength of 535 nm.

The nature of series [2]: Fluorescence spectrum: fluorescence characteristics and quantum yield. In kind it is physicochemical. The following applies: 0.1 M sodium phosphate buffer (pH 7.4), 20° C. Here is the method:
The fluorescence characteristics of Compound (7) and Compound (8) were measured. The quantum yield was measured by using F-4500 (Hitachi), and the other spectra were measured by using LS50B (Perkin Elmer). The measurement was performed at 20° C. for a solution of a sample dissolved in 0.1 M sodium phosphate buffer (pH 7.4) using dimethyl sulfoxide of less than 0.2% as a cosolvent. The quantum yield was calculated relative to that of fluorescein, which was 0.85 in aqueous 0.1 M NaOH. When similar quantum yield measurements were performed for a compound of the formula (I) wherein R^6 and R^9 were hydrogen atoms (p-DAMBO) and a compound of the formula (II) wherein R^16 and R^19 were hydrogen atoms (p-DAMBO-T) as controls, the quantum yields were 0.001 and 0.40, respectively.

The nature of series [3]: Effect of pH on the fluorescence intensity. It counts as physicochemical. The following applies: 0.1 M sodium phosphate buffer, 0.1% DMSO, pH range of from 3 to 13. Here is the method:
Compounds (7) and (8) were dissolved in 0.1 M sodium phosphate buffer (cosolvents 0.1% DMSO) adjusted to various pH values, and fluorescence was measured in the same manner as those in the aforementioned (b). […] Therefore, according to the measurement of nitrogen monoxide by using the compound of the present invention, extremely high accuracy of the measurement is achieved for a biosample with pH fluctuation.

[4] abbreviates: DMSO less than 0.2% as cosolvent.

Consider `CC1=C(CCC(=O)O)C(C)=[N+]2C1=C(c1ccc(N)c(N)c1)c1c(C)c(CCC(=O)O)c(C)n1[B-]2(F)F` [Compound (7), 8-(3,4-Diaminophenyl)-2,6-bis(2-carboxyethyl)-4,4-difluoro-1,3,5,7-tetramethyl-4-bora-3a,4a-diaza-s-indacene], for which the “rate of reaction with nitrogen monoxide (HPLC of product)” value in series [1] (compound at 5 μM with NOC 13, 37° C.) is “extremely rapid reaction”. The “change of fluorescence after addition of NOC 13” value in series [1] (compound at 5 μM, NOC 13 0-5.0 μM, 37° C., Ex 520 nm / Em 535 nm) was “Increase of fluorescence depending on the concentration of added NOC 13”.
With `CC1=C(CCC(=O)O)C(C)=[N+]2C1=C(c1ccc3[nH]nnc3c1)c1c(C)c(CCC(=O)O)c(C)n1[B-]2(F)F` [Compound (8), 8-(5-Benzotriazolyl)-2,6-bis(2-carboxyethyl)-4,4-difluoro-1,3,5,7-tetramethyl-4-bora-3a,4a-diaza-s-indacene], in series [2] (setting [4]), the Emission maximum was 537 nm, the Extinction coefficient came out at 56000 M⁻¹ cm⁻¹ and the Extinction maximum amounted to 521 nm. For the same compound, the Relative quantum yield in series [2] (relative to fluorescein (0.85 in aqueous 0.1 M NaOH)) is reported as 0.74. Besides, in series [3], the “change in fluorescence intensity with pH” value is “Almost no change in the fluorescence intensity”.
